# According to US10130598B2, “Methods and compositions for administration of 3-halopyruvate and related compounds for the treatment of cancer” (The Johns Hopkins University, priority 2008, dated 2018):
# Experiments:
# [1] = system: Hep3B cells; assay: ATP dependent luminescence cell viability assay, Hep3B; assay type: cell-based
# Description: (§1) The non-small cell lung cancer (NSCLC) cell line NCI-H1299, the breast cancer cell lines MCF7 and MDA MB 231 and the Hep3B, Hep2G and SK-Hep1 cells were obtained from the American Type Culture Collection (ATCC) (Manassas, Va., USA) and maintained as a monolayer culture in Eagle's minimum essential medium (MEM, Invitrogen, Gaithersburg, Md., USA) supplemented with 10% fetal bovine serum at 37 C and 5% CO2. All treatments were done in triplicate samples on 96-well plates. VX2 cells were maintained as described in Geschwind et al., Cancer Res., 62:3909-3913 (2002).
# Cytotoxicity of 3-BrPA was evaluated by the IC50 values, representing the drug concentration which depletes ATP by 50% compared to non-treated control. On day 1, cells were seeded into 96-well plates in a volume of 100 μl per well. On day 2, the medium of all wells was removed and an aliquot of 100 μl of media having serial dilutions of 3-BrPA in PBS, NaHCO3, NaOH, KOH and KHCO3 was added to the appropriate well. […] Briefly, 100 μl assay reagent was added to each well and mixed at room temperature for 2 min to develop luminescent signal. The luminescence intensity (cps) from each sample was determined with a spectrometer (Model Victor III, Perkin Elmer, Mass.). […]
# The effects on cell viability and cellular metabolism of 3-BrPA on Hep3B and VX2 cells were examined using luminescence ATP assays, as described above. […]
# [2] = ATP luminescent assay of 3-BrPA dissolved in alternative buffers; assay type: cell-based
# Procedure: (§2) Cytotoxicity of 3-BrPA was evaluated by the IC50 values, representing the drug concentration which depletes ATP by 50% compared to non-treated control. On day 1, cells were seeded into 96-well plates in a volume of 100 μl per well. On day 2, the medium of all wells was removed and an aliquot of 100 μl of media having serial dilutions of 3-BrPA in PBS, NaHCO3, NaOH, KOH and KHCO3 was added to the appropriate well. After 24 h of drug exposure cytotoxic effects of 3-BrPA were monitored by cellular ATP level using CellTiter-Glo™ assay reagents from Promega Corp (Madison, Wis.). Briefly, 100 μl assay reagent was added to each well and mixed at room temperature for 2 min to develop luminescent signal. The luminescence intensity (cps) from each sample was determined with a spectrometer (Model Victor III, Perkin Elmer, Mass.). Relative luminescence was calculated in proportion to the numbers of living cells per sample well. The results are expressed as the mean of three independent experiments. The intracellular ATP contents were calculated and normalized by equal cell number and expressed as the percentage of the control cells. The IC50 values were estimated graphically from dose-response plots.
# Based on the results described in Example 1, it was concluded that 10 mg of 3-BrPA is the maximum tolerated dose (MTD) if dissolved in 2.75 ml of PBS. […]
# [3] = system: H1299 cells; assay: Luminescence ATP assay, H1299; assay type: cell-based
# Procedure: as §2
# The anti-metabolic effect of 3-BrPA on H1299 cells was examined using luminescence ATP assays, as described above. […]
# [4] = system: MCF7 cells; assay: Trypan blue viability assay, MCF7; assay type: cell-based
# Description: as §1
# The efficacy of 3-BrPA in the treatment of breast cancer cells was tested using the cancer cell lines MCF7 and MDA MB 231. As described above, the cell lines were grown as monolayers in MEM (Invitrogen) supplemented with 10% fetal bovine serum (HyClone) at 37 C.° and 5% CO2, and all treatments were done in triplicate samples on 96-well plates.
# The EC50 of 3-BrPA for MCF7 cells lies between 0.05 and 0.06 mM. […] Therefore, considering that oral administration of 3-BrPA buffered in NaHCO3 is effective in prolonging survival in liver cancer models (Example 2), it is probable that oral administration of 3-BrPA buffered in NaHCO3 would also be effective in the treatment of breast cancer.
# [5] = system: MCF7 cells; assay: Luminescence ATP assay, MCF7; assay type: cell-based
# Procedure: as §2
# The anti-metabolic effect of 3-BrPA on MCF7 and MDA MB231 cells was examined using luminescence ATP assays, as described above. […]
# [6] = General toxicology studies, oral NaHCO3-buffered 3-BrPA; assay type: in vivo, nude mice; conditions: 100 and 200 mg/kg/day oral, single dose to 3-months of daily dosing
# Procedure: General toxicology studies were conducted on nude mice that were orally administered NaHCO3-buffered 3-BrPA at doses of 0, 100 and 200 mg/kg/day. The duration of exposure in this study ranged from a single dose to 3-months of daily dosing. […] 3-BrPA treatment had no effect on body weight.
structure (smiles),measurement,setting,value
"O=C(O)C(=O)CBr [3-BrPA, 3-bromopyruvate]",Level of ATP,"[1]; 3, 24, 48 hours",dose and time dependent decrease
same,IC50,"[1]; at 48 hours, read-out: IC50 (ATP depletion)",125 µM
same,IC50 value compared to 3-BrPA dissolved in PBS,[2]; dissolved in NaHCO3,did not show a significantly different in IC50 value
same,IC50 value compared to 3-BrPA dissolved in PBS,"[2]; other buffers tested (NaOH, KOH and KHCO3)",significantly higher IC50 values
same,ATP level (bioluminescent quantification),[3],dose and time dependent energy (ATP) depletion
same,Cells died,"[4]; 0.05 mM, within 3 hours",more than 40%
same,Cell death,[4]; 0.15 mM,100%
same,EC50 compared with EC50 of 3-BrPA for VX2 liver cancer cells,[4]; MCF7,lower
same,Viability (trypan blue),[4]; MCF7,dose and time dependent decrease in viability
same,ATP level (bioluminescent quantification),[5],dose and time dependent energy (ATP) depletion
same,Clinical symptoms,[6],did not exhibit any treatment related clinical symptoms
same,Effect on body weight,[6],no effect
same,Mortality,[6],no mortalities
same,"Organ weights, gross pathology and histopathology",[6],did not show any treatment-related changes
